Consider one molecule from PMC10687582, “Herpetrione, a New Type of PPARα Ligand as a Therapeutic Strategy Against Nonalcoholic Steatohepatitis” (Research, 2023).

This test addresses T1, PPARα (Homo sapiens, UniProt Q07869).
T1 construct: gene PPARA
T1 sequence (Q07869 200-468 limits assumed): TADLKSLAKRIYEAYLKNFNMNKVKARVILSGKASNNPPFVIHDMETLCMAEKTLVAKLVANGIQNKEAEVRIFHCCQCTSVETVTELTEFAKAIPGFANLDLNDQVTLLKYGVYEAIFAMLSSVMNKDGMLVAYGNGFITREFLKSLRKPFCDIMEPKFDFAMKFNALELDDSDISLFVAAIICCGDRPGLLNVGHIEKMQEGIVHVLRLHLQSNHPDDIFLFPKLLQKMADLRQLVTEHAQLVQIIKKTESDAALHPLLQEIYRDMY
In words: ITC (KD […]; WT in the mutant comparison […]); SPR KD […]; CETSA and DARTS in HepG2 lysates. Type of test: binding.

pKd: −log10 of the molar value.

Usually pKd stands for the Kd on a negative log10 scale, so that one unit is a factor of ten. Higher therefore signals a low Kd. On to `COc1cc(C(=O)C(CO)c2cc(C3OCC4C(c5ccc(O)c(OC)c5)OCC34)cc(OC)c2O)ccc1O` (stereo not shown) [herpetrione], for which the pKd was 5.49.
